Here are results for 14 compounds from ChEMBL document CHEMBL1130553, “Covalent binding of catechols to src family SH2 domains” (Bioorg Med Chem Lett, 1997).

T1 sequence (P06241 whole entry, the tested form may be a part): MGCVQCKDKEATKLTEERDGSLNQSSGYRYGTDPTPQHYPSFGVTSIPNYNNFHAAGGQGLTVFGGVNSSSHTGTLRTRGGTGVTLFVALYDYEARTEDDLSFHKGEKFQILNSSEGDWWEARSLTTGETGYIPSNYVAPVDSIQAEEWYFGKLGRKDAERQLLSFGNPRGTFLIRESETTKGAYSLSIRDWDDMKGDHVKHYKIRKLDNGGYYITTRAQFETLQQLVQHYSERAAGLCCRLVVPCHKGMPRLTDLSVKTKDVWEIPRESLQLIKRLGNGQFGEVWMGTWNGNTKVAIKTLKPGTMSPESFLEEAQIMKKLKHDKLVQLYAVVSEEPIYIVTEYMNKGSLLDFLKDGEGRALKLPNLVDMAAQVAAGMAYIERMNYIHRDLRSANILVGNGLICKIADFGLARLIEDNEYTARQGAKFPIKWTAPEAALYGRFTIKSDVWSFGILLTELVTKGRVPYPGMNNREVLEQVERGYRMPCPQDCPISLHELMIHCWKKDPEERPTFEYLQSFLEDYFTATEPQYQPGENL

The first assay concerns the target T1, Tyrosine-protein kinase Fyn (Homo sapiens, UniProt P06241). The assay can be described thus: Inhibition of peptide EPQ (pY) EEIPI binding to Fyn protein kinase SH2 domain at 100 uM (no inhibition).
What is called IC50 is the concentration that gives 50% inhibition. Read a low IC50 as inhibition by little substance. `CCCN(CCC)CCc1ccc(O)c(O)c1`: the IC50 was more than 100 µM.
Take `CCCN(CCC)C1Cc2cc(OC)c(OC)cc2C1` [PNU-99194A]: the IC50 was more than 100 µM.
For the compound `CCCN(CCC)C1Cc2cc(O)c(OC)cc2C1` (centres undefined), the IC50 was more than 100 µM.
Same read-out and setting: next, `NCCc1ccc(O)c(O)c1` [DOPAMINE]: more than 100 µM; `CCCN(CCC)C1Cc2ccc(O)cc2C1` (centres undefined): more than 100 µM.
Same read-out and setting: under `CCCN(CCC)C1Cc2cc(O)cc(O)c2C1` (centres undefined) stands more than 100 µM.

The next assay addresses T1, Tyrosine-protein kinase Fyn. The assay can be described thus: Inhibition of peptide EPQ (pY) EEIPI binding to Fyn protein kinase SH2 domain.
On to `CCCC1Cc2cc(O)c(O)cc2C1`, for which the IC50 was 1 µM.
The same measure, in the same setting: under `Oc1cc2c(cc1O)CC(N1CCCCC1)C2` stands 10 µM; under `CCCN(CCC)C1CCc2cc(O)c(O)cc2C1` (centres undefined), 50 µM; under `CCCN(CCC)C1Cc2cc(O)c(O)cc2C1`, 10 µM.
In turn, `NC1Cc2cc(O)c(O)cc2C1` registered an IC50 of 10 µM.
Still for that read-out and setting: next, `Oc1cc2c(cc1O)CC(NCc1ccccc1)C2`: 10 µM; `CCCN(CCC)C1Cc2c(O)ccc(O)c2C1`: 50 µM; `CC1=CC(=O)C(=O)C=C1C`: 1 µM.
